How the values were obtained:
[1] = Biodistribution in normal rats; type: in vivo; settings: IV
Procedure: While under isoflurane anesthesia, 0.15 mL of a 0.1% bovine serum albumin solution containing [^18F]tracers (10-20 μCi) were injected directly into the tail vein of ICR mice (22-25 g, male) The mice (n=3 for each time point) were sacrificed by cervical dislocation at indicated time points post injection. The organs of interest were removed and weighed, and the radioactivity was counted with an automatic gamma counter. The percentage dose per organ was calculated by a comparison of the tissue counts to suitably diluted aliquots of the injected material. Total activities of blood were calculated under the assumption that they were 7% of the total body weight. The % dose/g of samples was calculated by comparing the sample counts with the count of the diluted initial dose.
The ability of (+)-6b to target the pancreas was shown in normal rats. Using the methods described above under Example 6, the biodistribution of (+)-6b after IV injection in twelve normal rats was measured. For the organs studied, the pancreas had the highest % dose/gram within 30 minutes after injection. Also shown are data indicating distribution in the striatum, which is another area rich in VMAT-2 receptors.

VMAT2 = VMAT2 (Rattus norvegicus, UniProt Q01827); test: Blocking of pancreatic signal by DTBZ in rats; type: in vivo; design: from tissue; host or cells: living rats; organs dissected after iv injection; settings: 30 min, DTBZ 3.8 mg/kg pretreatment
Procedure: Rats were pretreated with non-radiolabeled DBTZ (3.8 mg/kg) five minutes prior to injection with (+)-6b.

VMAT2 sites = VMAT2 sites (Mus musculus, UniProt Q8BRU6); settings: lesioned mice
Text: Thirty minutes after injection, the mice were sacrificed and the brains removed. Different regions corresponding to striatum (ST), hippocampus (HP), cerebellum (CB), and cortex (CX) were dissected. In particular, the lesioned region was separated from non-lesioned area of the striatal tissues. Samples were counted in a gamma counter with two different window settings for F-18 and I-125, respectively, to obtain the regional distribution of each tracer.
To measure the degree of lesion, a dual-isotope experiment comparing the striatal uptakes in lesioned vs. unlesioned sites using [^18F]FP-DTBZ was performed. A marker [^125I]IPT (selective for dopamine transporters) was injected simultaneously.

[2] = Partition coefficient 1-octanol/phosphate buffer; type: physicochemical; settings: pH 7.4, 1-octanol and phosphate buffer
Procedure: Partition coefficients were measured by mixing the [^18F]tracer with 3 g each of 1-octanol and buffer (0.1 M phosphate, pH 7.4) in a test tube. The test tube was vortexed for 3 min at room temperature, followed by centrifugation for 5 min. Two weighed samples (0.5 g each) from the 1-octanol and buffer layers were counted in a well counter. The partition coefficient was determined by calculating the ratio of cpm/g of 1-octanol to that of buffer. Samples from the 1-octanol layer were re-partitioned until consistent partitions of coefficient values were obtained. Values are the mean±SEM of three independent experiments, each in duplicates.

Sequence of VMAT2 (Q01827 whole entry): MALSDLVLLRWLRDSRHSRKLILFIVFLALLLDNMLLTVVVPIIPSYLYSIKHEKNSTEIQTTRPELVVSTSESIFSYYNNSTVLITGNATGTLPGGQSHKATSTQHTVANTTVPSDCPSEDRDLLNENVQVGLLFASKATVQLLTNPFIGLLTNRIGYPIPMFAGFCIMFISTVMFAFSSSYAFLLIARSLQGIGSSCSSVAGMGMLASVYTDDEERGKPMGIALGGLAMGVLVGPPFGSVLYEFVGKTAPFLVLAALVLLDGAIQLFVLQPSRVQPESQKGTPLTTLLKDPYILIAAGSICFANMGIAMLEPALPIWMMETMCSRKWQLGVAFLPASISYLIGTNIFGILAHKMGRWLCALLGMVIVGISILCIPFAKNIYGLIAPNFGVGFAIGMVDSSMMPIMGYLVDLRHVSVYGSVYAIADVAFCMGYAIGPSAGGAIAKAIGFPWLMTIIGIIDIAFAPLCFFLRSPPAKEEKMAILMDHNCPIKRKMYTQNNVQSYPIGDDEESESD
Sequence of VMAT2 sites (Q8BRU6 whole entry): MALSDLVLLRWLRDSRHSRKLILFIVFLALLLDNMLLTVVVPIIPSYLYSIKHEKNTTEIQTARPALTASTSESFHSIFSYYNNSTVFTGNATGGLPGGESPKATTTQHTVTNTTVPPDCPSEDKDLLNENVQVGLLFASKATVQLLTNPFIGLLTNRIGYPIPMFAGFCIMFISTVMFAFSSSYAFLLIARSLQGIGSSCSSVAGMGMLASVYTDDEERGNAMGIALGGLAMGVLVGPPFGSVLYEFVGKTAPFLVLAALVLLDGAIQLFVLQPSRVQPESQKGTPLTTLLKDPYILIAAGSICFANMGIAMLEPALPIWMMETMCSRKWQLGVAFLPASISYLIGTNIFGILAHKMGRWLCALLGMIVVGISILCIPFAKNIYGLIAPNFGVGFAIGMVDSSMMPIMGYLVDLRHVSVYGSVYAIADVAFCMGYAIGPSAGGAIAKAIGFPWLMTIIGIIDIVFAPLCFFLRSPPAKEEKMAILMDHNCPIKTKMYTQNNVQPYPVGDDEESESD

COc1cc2c(cc1OCCC[18F])CCN1C[C@@H](CC(C)C)[C@H](O)C[C@H]21 [[^18F]-(+)-6b]
Biodistribution Blood ([1]; 2 min): 0.26 ± 0.03 % dose/g
Biodistribution Brain ([1]; 2 min): 0.71 ± 0.05 % dose/g
Biodistribution Cerebellum ([1]; 2 min): 0.63 ± 0.03 % dose/g
Biodistribution Cortex ([1]; 2 min): 0.65 ± 0.02 % dose/g
Biodistribution Heart ([1]; 2 min): 0.71 ± 0.07 % dose/g
Biodistribution Hippocampus ([1]; 2 min): 0.68 ± 0.07 % dose/g
Biodistribution Kidney ([1]; 2 min): 2.10 ± 0.17 % dose/g
Biodistribution Liver ([1]; 2 min): 3.53 ± 0.56 % dose/g
Biodistribution Lung ([1]; 2 min): 0.94 ± 0.04 % dose/g
Biodistribution Muscle ([1]; 2 min): 0.14 ± 0.03 % dose/g
Biodistribution Pancreas ([1]; 2 min): 2.51 ± 0.22 % dose/g
Biodistribution Skin ([1]; 2 min): 0.23 ± 0.05 % dose/g
Biodistribution Spleen ([1]; 2 min): 1.46 ± 0.15 % dose/g
Biodistribution Striatum ([1]; 2 min): 1.52 ± 0.20 % dose/g
Biodistribution Blood ([1]; 30 min): 0.23 ± 0.06 % dose/g
Biodistribution Brain ([1]; 30 min): 0.62 ± 0.08 % dose/g
Biodistribution Cerebellum ([1]; 30 min): 0.40 ± 0.04 % dose/g
Biodistribution Cortex ([1]; 30 min): 0.44 ± 0.06 % dose/g
Biodistribution Heart ([1]; 30 min): 0.41 ± 0.03 % dose/g
Biodistribution Hippocampus ([1]; 30 min): 0.61 ± 0.12 % dose/g
Biodistribution Kidney ([1]; 30 min): 1.06 ± 0.06 % dose/g
Biodistribution Liver ([1]; 30 min): 2.82 ± 0.24 % dose/g
Biodistribution Lung ([1]; 30 min): 0.69 ± 0.03 % dose/g
Biodistribution Muscle ([1]; 30 min): 0.17 ± 0.02 % dose/g
Biodistribution Pancreas ([1]; 30 min): 5.50 ± 0.97 % dose/g
Biodistribution Skin ([1]; 30 min): 0.28 ± 0.01 % dose/g
Biodistribution Spleen ([1]; 30 min): 1.03 ± 0.18 % dose/g
Biodistribution Striatum ([1]; 30 min): 2.25 ± 0.48 % dose/g
Biodistribution Blood ([1]; 60 min): 0.18 ± 0.02 % dose/g
Biodistribution Brain ([1]; 60 min): 0.42 ± 0.04 % dose/g
Biodistribution Cerebellum ([1]; 60 min): 0.28 ± 0.04 % dose/g
Biodistribution Cortex ([1]; 60 min): 0.27 ± 0.07 % dose/g
Biodistribution Heart ([1]; 60 min): 0.30 ± 0.10 % dose/g
Biodistribution Hippocampus ([1]; 60 min): 0.36 ± 0.08 % dose/g
Biodistribution Kidney ([1]; 60 min): 0.84 ± 0.09 % dose/g
Biodistribution Liver ([1]; 60 min): 2.47 ± 0.30 % dose/g
Biodistribution Lung ([1]; 60 min): 0.54 ± 0.14 % dose/g
Biodistribution Muscle ([1]; 60 min): 0.13 ± 0.01 % dose/g
Biodistribution Pancreas ([1]; 60 min): 4.98 ± 0.24 % dose/g
Biodistribution Skin ([1]; 60 min): 0.23 ± 0.04 % dose/g
Biodistribution Spleen ([1]; 60 min): 0.83 ± 0.18 % dose/g
Biodistribution Striatum ([1]; 60 min): 1.85 ± 0.26 % dose/g
Biodistribution Blood ([1]; 120 min): 0.12 ± 0.03 % dose/g
Biodistribution Brain ([1]; 120 min): 0.35 ± 0.02 % dose/g
Biodistribution Cerebellum ([1]; 120 min): 0.20 ± 0.01 % dose/g
Biodistribution Cortex ([1]; 120 min): 0.20 ± 0.06 % dose/g
Biodistribution Heart ([1]; 120 min): 0.22 ± 0.01 % dose/g
Biodistribution Hippocampus ([1]; 120 min): 0.23 ± 0.03 % dose/g
Biodistribution Kidney ([1]; 120 min): 0.55 ± 0.06 % dose/g
Biodistribution Liver ([1]; 120 min): 1.47 ± 0.13 % dose/g
Biodistribution Lung ([1]; 120 min): 0.35 ± 0.03 % dose/g
Biodistribution Muscle ([1]; 120 min): 0.10 ± 0.01 % dose/g
Biodistribution Pancreas ([1]; 120 min): 2.76 ± 0.61 % dose/g
Biodistribution Skin ([1]; 120 min): 0.16 ± 0.02 % dose/g
Biodistribution Spleen ([1]; 120 min): 0.48 ± 0.04 % dose/g
Biodistribution Striatum ([1]; 120 min): 1.42 ± 0.54 % dose/g
Blocking, Pancreas (VMAT2): 30%
Blocking, Striatum (VMAT2): > 90%
correlation (r) of lesioned-site uptake with [125I]IPT data (VMAT2 sites): 0.95

COc1cc2c(cc1OCCC[18F])CCN1CC(CC(C)C)C(O)CC21 (racemic) [[^18F]6b]
logD at 3 min [2]: 2.61

— patent US8562949B2, “Radiolabeled dihydrotetrabenazine derivatives and their use as imaging agents” (The Trustees of the University of Pennsylvania, priority 2006, dated 2013)
